Measurements published in publication PMC9542405, “Design, synthesis and antitumor activity of 5-trifluoromethylpyrimidine derivatives as EGFR inhibitors” (Journal of Enzyme Inhibition and Medicinal Chemistry, 2022).

What was measured:
A549 cells [1] = experiment: A549 cell cycle analysis (flow cytometry); type: cell-based, Human
A549 cells [2] = experiment: A549 cell apoptosis (Annexin V-FITC/PI flow cytometry); settings: 48 h
Protocol: And then, the original culture medium was replaced with 0.1 μM, 0.5 μM, and 1 μM compounds (Geftinib or the testing compound) in the cell incubator for 48 h. After trypsin digests cells, the cells were collected after centrifugation, resuspended with PBS and counted. After suspension of the cells with Annexin V – FITC binding solution and mixing with PI staining solution, the fluorescence density was detected by flow cytometry in BD Accuri C6 flow cytometry, which was provided by School of Pharmaceutical Sciences, Guizhou University, China.

EGFR^wt-TK = molecular target: T1, EGFR^wt-TK (Homo sapiens, UniProt P00533); experiment: In vitro EGFR^wt-TK assay (ELISA kit); type: biochemical; settings: mean ± SD of three replicates; for inhibition at 1 µM: read-out: EGFR^wt-TK inhibition rate; for inhibition at 1 µM / EGFR^wt-TK inhibition rate: 1 μM
T1 construct: purchased
Protocol: The IC50 values of target compounds against EGFR^wt were calculated from the dose − response curve under Graph-Pad Prism 9, which was tested at the different concentrations.

A549 cells [3] = experiment: In vitro activity against cancer cell lines (MTT), A549; type: cell-based; settings: Homo sapiens, mean ± SD of three replicates
Excerpt: (§1) Co., Ltd. A549 (Human non-small-cell lung cancer cell line) cells, MCF-7 (Human breast cancer
(§2) cell line) cells, and PC-3 (Human prostate cancer cell line) cells. They were all purchased from the
(§3) Shanghai Cell Bank of the Chinese Academy of Sciences. NRK-52E (Normal rat kidney cell line)
(§4) cells donated by Guizhou Medicinal University were also used to evaluate the cytotoxicity.

MCF-7 cells = experiment: In vitro activity against cancer cell lines (MTT), MCF-7; type: cell-based; settings: Homo sapiens, MCF7, mean ± SD of three replicates
Excerpt: as §1, §2, §3, §4

PC-3 cells = experiment: In vitro activity against cancer cell lines (MTT), PC-3; type: cell-based; settings: Homo sapiens, mean ± SD of three replicates
Excerpt: as §1, §2, §3, §4

[4] = test system: NRK-52E (Normal rat kidney cell line) cells; experiment: Cytotoxicity evaluation against normal cell line (MTT); type: cell-based; settings: 10 μM
Excerpt: Three tumour cells A549, MCF-7, and PC-3 with high expression of EGFR^wt were used to investigate antitumor activities of compounds 9a–9x. NRK-52E (Normal rat kidney cell line) cells were used to evaluate cytotoxicity of compounds 9a–9x. They were all tested with typical MTT method, and Gefitinib were used as positive controls.
NRK-52E (Normal rat kidney cell line) cells were used to evaluate cytotoxicity of compounds 9a–9x.

T1 sequence (P00533 25-1210): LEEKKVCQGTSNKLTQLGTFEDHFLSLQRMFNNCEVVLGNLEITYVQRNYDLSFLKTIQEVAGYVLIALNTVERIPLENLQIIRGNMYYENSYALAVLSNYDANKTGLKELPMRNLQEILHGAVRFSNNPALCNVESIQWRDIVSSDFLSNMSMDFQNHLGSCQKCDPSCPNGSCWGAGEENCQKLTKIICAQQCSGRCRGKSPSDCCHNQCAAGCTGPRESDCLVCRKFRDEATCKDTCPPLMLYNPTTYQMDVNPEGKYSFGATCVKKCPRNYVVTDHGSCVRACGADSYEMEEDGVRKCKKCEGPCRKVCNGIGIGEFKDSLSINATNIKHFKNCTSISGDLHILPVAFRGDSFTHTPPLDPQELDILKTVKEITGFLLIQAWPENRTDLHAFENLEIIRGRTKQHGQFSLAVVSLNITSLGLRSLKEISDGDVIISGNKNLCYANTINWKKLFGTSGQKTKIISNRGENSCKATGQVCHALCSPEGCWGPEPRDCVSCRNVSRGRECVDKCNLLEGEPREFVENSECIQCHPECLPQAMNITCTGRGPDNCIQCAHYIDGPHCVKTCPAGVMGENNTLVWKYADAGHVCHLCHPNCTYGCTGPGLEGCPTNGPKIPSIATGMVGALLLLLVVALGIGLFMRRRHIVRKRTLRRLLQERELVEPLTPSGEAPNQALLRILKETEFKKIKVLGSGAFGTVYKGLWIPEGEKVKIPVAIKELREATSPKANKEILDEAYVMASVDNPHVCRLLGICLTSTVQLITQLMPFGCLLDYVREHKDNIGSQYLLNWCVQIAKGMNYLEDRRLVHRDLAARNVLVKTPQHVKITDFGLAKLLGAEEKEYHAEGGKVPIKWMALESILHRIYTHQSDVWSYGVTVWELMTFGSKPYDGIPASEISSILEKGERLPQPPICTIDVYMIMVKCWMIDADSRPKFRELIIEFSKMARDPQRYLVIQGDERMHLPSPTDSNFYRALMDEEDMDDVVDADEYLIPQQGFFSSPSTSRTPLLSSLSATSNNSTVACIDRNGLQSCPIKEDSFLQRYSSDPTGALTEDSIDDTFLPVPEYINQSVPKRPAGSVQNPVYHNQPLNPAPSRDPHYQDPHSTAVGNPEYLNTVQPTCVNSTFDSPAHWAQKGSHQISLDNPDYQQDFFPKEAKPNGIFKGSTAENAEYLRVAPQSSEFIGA

inhibition at 1 µM (EGFR^wt-TK) [%] | IC50 (A549 cells [3]) [µM] | IC50 (MCF-7 cells) [µM] | IC50 (PC-3 cells) [µM] | melting point [°C] | EGFR^wt-TK inhibition rate (EGFR^wt-TK) [%] | IC50 (EGFR^wt-TK) [µM] | SMILES | Proportion of A549 cells at G2/M (A549 cells [1]; 0.1 μM) [%] | Proportion of A549 cells at G2/M (A549 cells [1]; 0.5 μM) [%] | Proportion of A549 cells at G2/M (A549 cells [1]; 1 μM) [%] | Q2-4 (early apoptosis) (A549 cells [2]; A549, 0.1 μM) [%] | Q2-4 (early apoptosis) (A549 cells [2]; A549, 1 μM) [%] | inhibition against NRK-52E cells [4]
 |  |  |  |  |  |  | COc1cc2ncnc(Nc3ccc(F)c(Cl)c3)c2cc1OCCCN1CCOCC1 [Gefitinib] | 17.32 | 20.72 | 21.45 | 1.03 | 11.98 | 
37.1 ± 0.46 | 6.92 ± 0.38 | 9.75 ± 0.85 | > 20 | > 250 |  |  | CNC(=O)c1sccc1Nc1nc(Nc2ccc(NC(=O)C3CCN(C(C)=O)CC3)cc2)ncc1C(F)(F)F [Compound 9s, 1-Acetyl-piperidine-4-carboxylicacid{4-[4-(2-methylcarbamoyl-thiophen-3-ylamino)-5-trifluoromethyl-pyrimidin-2-ylamino]-phenyl}-amide] |  |  |  |  |  | 
> 50 | 0.46 ± 0.27 | 4.13 ± 0.21 | 7.88 ± 1.34 | 248.8 to 249.1 | 58.14 ± 1.76 | 0.14 ± 0.053 | CNC(=O)c1sccc1Nc1nc(Nc2ccc(NC(=O)C=Cc3ccc(F)cc3)cc2)ncc1C(F)(F)F [Compound 9v, 3–(2-{4-[3-(4-Fluoro-phenyl)-acryloylamino]-phenylamino}-5-trifluoromethyl-pyrimidin-4-ylamino)-thiophene-2-carboxylic acid methylamide] |  |  |  |  |  | 
> 50 | 0.35 ± 0.11 | 3.24 ± 0.16 | 5.12 ± 0.73 | 237.5 to 238.8 | 62.73 ± 1.86 | 0.091 ± 0.0084 | CNC(=O)c1sccc1Nc1nc(Nc2ccc(NC(=O)C=Cc3cccc(F)c3)cc2)ncc1C(F)(F)F [Compound 9u, 3–(2-{4-[3-(3-Fluoro-phenyl)-acryloylamino]-phenylamino} -5-trifluoromethyl-pyrimidin-4-ylamino)-thiophene-2-carboxylic acid methylamide] | 19.79 |  | 43.92 | 3.39 | 52.96 | less than 5%
